System: cultured neurons
Test: axonal development in cultured neurons (Tau-1 labelling)
Assay type: cell-based, rat
Method: For biochemical studies, neurons were seeded in six-well culture plates with a density of 7.5×10^5 cells per well. For LDH assay and cell death detection, 24-well culture plates were used with a neuron density of 2.5×10^5 cells per well. Neurons of 14-17 days in vitro (DIV) were used for experiments. […] HEK 293 cells were maintained in DMEM (Invitrogen™) supplemented with 10% fetal bovine serum and 1% penicillin/streptomycin. For protein expression in cell lines, cells were transfected with Calcium Phosphate Transfection reagent (Promega™, San Luis Obispo, Calif., USA) and used 24 h later as described previously (Yang et al., 2009). The JNK inhibitor, L-JNKI, was purchased from Alexis Biochemicals™ (San Diego, Calif.). Thrombin was obtained from BIOPUR™ (Bubendorf, Switzerland). Other assay reagents without indication were obtained from Sigma™.
Cultured hippocampal neurons on glass coverslips were used for immunostaining. After treatments indicated in the text, neurons were fixed with 2% paraformaldehyde for 3 min at room temperature followed by permeabilization with ice-cold methanol for 10 min at −20° C. The coverslips were then washed three times with PBS and immunostained with appropriate antibodies dissolved in PBS for 1 h at room temperature. After washing three times with PBS, coverslips were incubated with Alexa-labeled secondary antibodies from Invitrogen for an additional 1 h. For mitochondrial detection, neuronal cultures were incubated at 37° C. for 30 min with 2 μM MitoTracker-TR (Invitrogen™). Coverslips were then fixed and mounted with ProLong Gold Antifade Reagent (Invitrogen™). Fluorescence was captured using a Zeiss Observer Z1™ microscope and all images were analyzed with ImageJ™ and processed using Adobe Photoshop™.

Sequence: MTPLMWAAYRTHSVDPTRLL (listed as Homo sapiens) [NIMoE, peptide comprising motif-E of zD17, fused to the cell-membrane transduction domain of HIV-1 Tat for cell experiments]
- axon extension (length) (NIMoE incubation, control 160.0±8.9): 161.1±13.6
- effect on axon initiation and extension (chronic incubation in cultured neurons): did not affect
- axon initiation rate normalized to control (incubation of cultured neurons, Tau-1 marker): 98.6±0.2%

Source: US9458437B2, “Neuroprotective peptides that inhibit interaction between palmitoyl acyl transferase zinc-finger DHHC type containing 17 (zD17) and c-jun N-terminal kinase (JNK)” (The University of British Columbia, priority 2011, dated 2016)
